Measured values as given in paper PMC11279465, “Dual Inhibitors of P-gp and Carbonic Anhydrase XII (hCA XII) against Tumor Multidrug Resistance with Piperazine Scaffold” (Molecules, 2024).
Values joined by “and” are separate entries in the source; they are usually repeats but may differ in a detail not shown here. Equal values may be shown once.

Columns and labels:
hCA IX = target: T1, hCA IX (Homo sapiens, UniProt Q16790); assay: CA inhibition, stopped-flow CO2 hydrase assay; type: biochemical; conditions: stopped-flow technique; incubation time 6 h; mean of 3 assays
T1 construct: made in house
Experimental: (§1) Four hCA isoforms were used in this assay: the cytosolic hCA I and II and the tumor-associated transmembrane hCA IX and XII isoforms. Acetazolamide (AAZ) was used as a standard inhibitor.
(§2) An SX.18MV-R Applied Photophysics (Oxford, UK) stopped-flow instrument has been used to assay the catalytic/inhibition of various CA isozymes. […] Saturated CO2 solutions in water at 25 °C were used as substrate. Stock solutions of inhibitors were prepared at a concentration of 10 μM (in DMSO-water 1:1, v/v) and dilutions up to 0.01 nM were carried out with the assay buffer mentioned above. […] Inhibitor and enzyme solutions were preincubated together for 6 h at room temperature prior to assay in order to allow for the formation of the E-I complex. […] The inhibition constants were obtained by non-linear least-squares methods using the Cheng–Prusoff equation, as reported earlier, and represent the mean from at least three different determinations.

hCA II = target: T2, hCA II (Homo sapiens, UniProt P00918); assay: CA inhibition, stopped-flow CO2 hydrase assay; type: biochemical; conditions: stopped-flow technique; incubation time 6 h; mean of 3 assays
T2 construct: made in house
Experimental: as §1, §2

hCA XII = target: T3, hCA XII (Homo sapiens, UniProt O43570); assay: CA inhibition, stopped-flow CO2 hydrase assay; type: biochemical; conditions: stopped-flow technique; incubation time 6 h; mean of 3 assays
T3 construct: made in house
T3 sequence (O43570 25-354): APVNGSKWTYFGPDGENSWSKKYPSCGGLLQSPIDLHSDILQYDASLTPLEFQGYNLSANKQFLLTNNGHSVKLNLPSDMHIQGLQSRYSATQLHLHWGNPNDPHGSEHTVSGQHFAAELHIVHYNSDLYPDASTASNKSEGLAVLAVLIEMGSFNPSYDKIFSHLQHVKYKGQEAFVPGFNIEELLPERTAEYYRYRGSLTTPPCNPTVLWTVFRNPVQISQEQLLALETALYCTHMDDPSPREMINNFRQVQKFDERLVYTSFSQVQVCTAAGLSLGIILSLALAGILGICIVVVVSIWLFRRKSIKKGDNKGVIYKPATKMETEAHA
Experimental: as §1, §2

hCA I = target: T4, hCA I (Homo sapiens, UniProt P00915); assay: CA inhibition, stopped-flow CO2 hydrase assay; type: biochemical; conditions: stopped-flow technique; incubation time 6 h; mean of 3 assays
T4 construct: made in house
T4 sequence (P00915 whole entry): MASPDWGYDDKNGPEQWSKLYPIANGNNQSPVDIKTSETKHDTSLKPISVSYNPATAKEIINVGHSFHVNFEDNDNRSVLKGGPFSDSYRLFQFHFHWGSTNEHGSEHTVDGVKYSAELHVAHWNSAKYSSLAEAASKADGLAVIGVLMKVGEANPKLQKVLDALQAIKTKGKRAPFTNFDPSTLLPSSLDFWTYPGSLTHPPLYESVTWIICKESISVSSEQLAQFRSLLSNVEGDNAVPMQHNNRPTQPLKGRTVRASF
Experimental: as §1, §2

A549/DOX cells [1] = assay: Doxorubicin co-administration assay (MTT); type: cell-based, human; conditions: compound at 3 µM + doxorubicin 5 µM, 48 h
Experimental: (§3) These compounds were then assayed at 1 and 3 µM concentrations in co-administration with doxorubicin at a concentration of 5 µM, which is known to discriminate well between sensitive and resistant cells. […] Moreover, in the A549/DOX cell line, the co-administration of 1, 2, 4–6, 14 and 19, tested at 3 µM, led to the highest enhancement of doxorubicin toxicity reaching a reduction of nearly 55.0% in cell viability.
(§4) K562/DOX cells were incubated for 72 h with different concentrations of doxorubicin in combination with 1 or 3 µM of all compounds. IC50 was the concentration killing 50% of cells and was determined graphically from relative survival curves obtained by GraphPad Prism 5 software (GraphPad, San Diego, CA, USA). HT29, A549, HT29/DOX and A549/DOX cells were incubated for 48 h with 5 µM doxorubicin, alone or in combination with 1 or 3 µM of selected compounds. Cell viability of the cell lines was measured by the MTT assay, using a Synergy HT microplate spectrofluorometer (Bio-Tek Instruments, Winooski, VT, USA). The absorbance of untreated cells was considered 100%; results were expressed as a percentage of viable treated cells versus the control untreated cells.

K562/DOX cells [2] = assay: Doxorubicin cytotoxicity enhancement assay (MTT); type: cell-based, human; conditions: 72 h
Experimental: K562 is a highly undifferentiated erythroleukemia cell line. The doxorubicin-resistant K562/DOX cells overexpress almost exclusively the transporter membrane protein P-gp.
as §4, with “IC50 was the concentration killing 50% of cells and was determined graphically from relative survival curves obtained by GraphPad Prism 5 software (GraphPad, San Diego, CA, USA).” left out

K562/DOX cells [3] = assay: Intrinsic cytotoxicity (MTT); type: cell-based, human; conditions: compound alone at 3 µM, 72 h
Experimental: Compounds were first studied at 1 and 3 µM concentrations to evaluate their intrinsic cytotoxicity in both the parental K562 and the resistant K562/DOX cell lines, using the MTT assay. All compounds had no intrinsic cytotoxicity in the parental line.
(§5) The intrinsic toxicity of the studied compounds was determined by an MTT assay. K562 and K562/DOX were exposed for 72 h with compounds at 1 and 3 µM concentrations while HT29, A549, HT29/DOX and A549/DOX cells were incubated for 48 h with compounds used at different concentrations (from 10 nM to 50 µM). The percentage of growth compared to the untreated control was transformed into histograms with the GraphPad Prism 5 program.

HT29/DOX cells [4] = assay: Doxorubicin co-administration assay (MTT); type: cell-based, human; conditions: compound at 3 µM + doxorubicin 5 µM, 48 h
Experimental: as §3, §4

HT29/DOX cells [5] = assay: Intrinsic cytotoxicity (MTT); type: cell-based, human; conditions: compound alone at 1 µM; HT29/DOX; 48 h
Experimental: (§6) All compounds were preliminarily studied to evaluate their intrinsic cytotoxicity at different concentrations (from 10 nM to 50 µM) in the parental HT29 and A549 and the resistant HT29/DOX and A549/DOX cells using the MTT assay.
as §5, with “program. […]” for “program.”

A549/DOX cells [6] = assay: Intrinsic cytotoxicity (MTT); type: cell-based, human; conditions: compound alone at 1 µM; A549/DOX; 48 h
Experimental: as §6
as §5, with “program. […]” for “program.”

Row | SMILES | Ki (hCA IX) [nM] | Ki (hCA II) [nM] | Ki (hCA XII) [nM] | Ki (hCA I) [nM] | reduction in cell viability (A549/DOX cells [1]) [%] | RF (Reversal Fold: IC50 of doxorubicin alone / in presence of modulator) (K562/DOX cells [2]; compound at 1 µM) | RF (Reversal Fold: IC50 of doxorubicin alone / in presence of modulator) (K562/DOX cells [2]; compound at 3 µM) | reduction of cellular viability (K562/DOX cells [3]) | reduction in cell viability (HT29/DOX cells [4]) [%] | toxicity (HT29/DOX cells [5]) [%] | toxicity (A549/DOX cells [6]) [%]
1 | COc1cc(/C=C/CN2CCN(CCOc3ccc4ccc(=O)oc4c3)CC2)cc(OC)c1OC [Compound 1, (E)-7-(2-(4-(3-(3,4,5-Trimethoxyphenyl)allyl)piperazin-1-yl)ethoxy)-2H-chromen-2-one] | 51.3 | > 10000 | 13 | > 10000 | ~55.0 | 1.6 | 2.3 | – | – | – | –
2 | COc1cc(/C=C/CN2CCN(CCCCOc3ccc4oc(=O)ccc4c3)CC2)cc(OC)c1OC [Compound 9, (E)-6-(4-(4-(3-(3,4,5-Trimethoxyphenyl)allyl)piperazin-1-yl)butoxy)-2H-chromen-2-one] | 22.1 | > 10000 | 7.3 | > 10000 | – | 2.5 | 1.3 | 30–50% | – | – | –
3 | COc1cc(/C=C/CN2CCN(CCCOc3ccc4c(C)cc(=O)oc4c3)CC2)cc(OC)c1OC [Compound 5, (E)-4-Methyl-7-(3-(4-(3-(3,4,5-trimethoxyphenyl)allyl)piperazin-1-yl)propoxy)-2H-chromen-2-one] | 34.7 | > 10000 | 27.2 | > 10000 | – | 5.5 | 27.6 | – | 65.0 | – | –
4 | COc1cc(/C=C/CN2CCN(CCOc3ccc4c(C)cc(=O)oc4c3)CC2)cc(OC)c1OC [Compound 4, (E)-4-Methyl-7-(2-(4-(3-(3,4,5-trimethoxyphenyl)allyl)piperazin-1-yl)ethoxy)-2H-chromen-2-one] | 25.2 | > 10000 | 32.8 | > 10000 | – | 5.7 | 15.8 | – | 65.0 | – | –
5 | COc1cc(/C=C/CN2CCN(CCCOc3ccc4ccc(=O)oc4c3)CC2)cc(OC)c1OC [Compound 2, (E)-7-(3-(4-(3-(3,4,5-Trimethoxyphenyl)allyl)piperazin-1-yl)propoxy)-2H-chromen-2-one] | 62.6 | > 10000 | 29.4 | > 10000 | ~55.0 | 3.8 | 4.5 | – | – | – | –
6 | COc1cc(CN2CCN(CCCOc3ccc4ccc(=O)oc4c3)CC2)cc(OC)c1OC [Compound 14, 7-(3-(4-(3,4,5-Trimethoxybenzyl)piperazin-1-yl)propoxy)-2H-chromen-2-one] | 40.1 | > 10000 | 13.6 | > 10000 | ~55.0 | 1.0 | 3.4 | – | 65.0 | – | –
7 | COc1ccc(C(CCCN2CCN(CCOc3ccc4ccc(=O)oc4c3)CC2)c2ccc(OC)cc2)cc1 [Compound 25, 7-(2-(4-(4,4-Bis(4-methoxyphenyl)butyl)piperazin-1-yl)ethoxy)-2H-chromen-2-one] | 113 | > 10000 | 84.7 | > 10000 | – | 5.9 | – | 30–50% | – | ≥ 35 | ≥ 35
8 | COc1cc(CN2CCN(CCOc3ccc4oc(=O)ccc4c3)CC2)cc(OC)c1OC [Compound 19, 6-(2-(4-(3,4,5-Trimethoxybenzyl)piperazin-1-yl)ethoxy)-2H-chromen-2-one] | 84.7 | > 10000 | 5.8 | > 10000 | ~55.0 | 1.4 | 2.2 | – | 65.0 | – | –
9 | COc1cc(/C=C/CN2CCN(CCOc3ccc4oc(=O)ccc4c3)CC2)cc(OC)c1OC [Compound 7, (E)-6-(2-(4-(3-(3,4,5-Trimethoxyphenyl)allyl)piperazin-1-yl)ethoxy)-2H-chromen-2-one] | 51 | > 10000 | 29.5 | > 10000 | – | 1 and 1.1 | 1 | 30–50% | – | – | –
